Data taken from patent US9359298B2, “Cajanine structure analogous compound, preparation method and use” (INSTITUTE OF MEDICINAL BIOTECHNOLOGY, CHINESE ACADEMY OF …, priority 2011, dated 2016).
In brackets after ≈: the same amount, converted by molar mass. Where two headings read alike, the source gives them in different places.

Columns and labels:
Type in all cases: cell-based
[1] = test system: Influenza A virus (hanfang359/95); assay: Determination of anti-influenza virus activity (CPE in MDCK cells); settings: for IC50: Influenza A virus, MDCK, 36 h; for anti-influenza virus activities compared with the lead compound cajanine: statement in words
Coxsackie virus B6 = assay: Coxsackie virus activity assay (CPE in Vero cells); settings: Vero
HCV = assay: Anti-hepatitis C virus (HCV) activity assay (HCV RNA in Huh7.5 cells); settings: for EC50: Hepatitis C virus, Huh7.5, 72 h, read-out: HCV EC50; for anti-HCV viral activity: statement in words
Description: Inoculate Huh7.5 cells into 96-well plates to a density of 3×10^4 cells/cm^2, culture for 24h, infect the cells with 45 IU/cell HCV supernatant, meanwhile, add drug solutions or solvent control for treatment.

HIV-1 III B virus = assay: Anti-HIV activity assay (P24 antigen in MT-4 cells); settings: for IC50: Human immunodeficiency virus 1, MT4, 96 h, read-out: HIV IC50; for anti-HIV viral activity: statement in words
PC12 cells [2] = assay: Neuroprotective activity assay, serum-deprived injury to PC12 cells (MTT); settings: for viability at 10 µM: Rattus norvegicus, PC-12, 48 h, read-out: serum-deprived (surviving PC12 cells, MTT 570 nm); for protective effect on serum-deprived injury to PC12 cells: statement in words
Outline: (§1)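 PC12 cells on poly-lysine plated 24 h, then injured 48 h by serum-free DMEM or 4 μM rotenone with 10 μM test compound present during injury. Viability read by MTT (4 h), absorbance 570 nm.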

PC12 cells [3] = assay: Neuroprotective activity assay, rotenone injury to PC12 cells (MTT); settings: for viability at 10 µM: Rattus norvegicus, PC-12, 48 h, read-out: rotenone (surviving PC12 cells, MTT 570 nm); for protective effect on rotenone injury to PC12 cells: statement in words
Outline: as §1

[4] = read-out: COX-B6 IC50, Vero cells, about 100TCID50, CPE, Reed-Muench
[5] = Huh7.5 cells, 72 h, HCV RNA by RT-PCR, Reed-Muench
[6] = MT-4 cells, HIV-1 III B 100TCID50, 96 h, P24 antigen
[7] = 10 μM test compound, 48 h, Control 100.0 ± 9.2, Model 69.3 ± 4.1
[8] = 10 μM test compound, 4 μM rotenone, 48 h, Control 100.0 ± 8.9, Model 73.2 ± 7.8

| SMILES | IC50 [1] | anti-influenza virus activities compared with the lead compound cajanine [1] | IC50 (Coxsackie virus B6; [4]) | EC50 (HCV; [5]) | IC50 (HIV-1 III B virus; [6]) | viability at 10 µM (PC12 cells [2]; [7]) | viability at 10 µM (PC12 cells [3]; [8]) | anti-HCV viral activity (HCV) | anti-HIV viral activity (HIV-1 III B virus) | protective effect on serum-deprived injury to PC12 cells (PC12 cells [2]) | protective effect on rotenone injury to PC12 cells (PC12 cells [3]) | IC50 (Coxsackie virus B6; read-out: COX-B6 IC50) | EC50 (HCV) | IC50 (HIV-1 III B virus) | viability at 10 µM (PC12 cells [2]) | viability at 10 µM (PC12 cells [3]) |
| --- | --- | --- | --- | --- | --- | --- | --- | --- | --- | --- | --- | --- | --- | --- | --- | --- |
| COC(=O)c1c(/C=C/c2cc(OC)cc(OC)n2)cc(OC)c(CC=C(C)C)c1O [Compound 8x, methyl 2-hydroxy-3-isopentenyl-4-methoxy-6-[(E)-2-(4,6-dimethoxypyrid-2-yl)ethenyl]benzoate] | 0.65 µg/mL (≈ 1.57 µM) | significantly stronger than the lead compound cajanine | 4.58 µg/mL (≈ 11.1 µM) | 1.87 µg/mL (≈ 4.52 µM) | 0.79 µg/mL (≈ 1.91 µM) | 79.8 ± 2.6% | 76.5 ± 1.8% | – | – | – | – | – | – | – | – | – |
| COC(=O)c1c(/C=C/c2cccc(OC)n2)cc(OC)c(CC=C(C)C)c1O [Compound 8y, methyl 2-hydroxy-3-isopentenyl-4-methoxy-6-[(E)-2-(6-methoxy-pyrid-2-yl)ethenyl]benzoate] | 2.14 µg/mL (≈ 5.58 µM) | – | 7.12 µg/mL (≈ 18.6 µM) | 4.33 µg/mL (≈ 11.3 µM) | 6.8 µg/mL (≈ 17.7 µM) | 49.8 ± 2.6% | 48.9 ± 6.5% | – | – | – | – | – | – | – | – | – |
| COc1cc(/C=C/c2ccccc2)c(C(=O)OCC(O)CO)c(O)c1CC=C(C)C (stereo not drawn) [Compound 9e, 2,3-dihydroxypropyl2-hydroxy-3-isopentenyl-4-methoxy-6-[(E)-styryl]benzoate] | 0.1 µg/mL (≈ 0.242 µM) | significantly stronger than the lead compound cajanine | 0.21 µg/mL (≈ 0.509 µM) | 0.66 µg/mL (≈ 1.6 µM) | 0.73 µg/mL (≈ 1.77 µM) | 91.3 ± 2.4% | 90.8 ± 4.3% | stronger anti-HIV, HCV viral activities | stronger anti-HIV, HCV viral activities | the strongest activities | the strongest activities | – | – | – | – | – |
| COc1cc(/C=C/c2ccccc2)c(C(=O)NC2CCNCC2)c(O)c1CC=C(C)C [Compound 9f] | 0.31 µg/mL (≈ 0.737 µM) | – | 0.24 µg/mL (≈ 0.571 µM) | 6.09 µg/mL (≈ 14.5 µM) | 0.14 µg/mL (≈ 0.333 µM) | 58.9 ± 2.6% | 68.5 ± 4.9% | – | – | – | – | – | – | – | – | – |
| COc1cc(/C=C/c2ccccc2)c(C(=O)Nc2ccccc2)c(O)c1CC=C(C)C [Compound 9g, N-phenyl-2-hydroxy-3-isopentenyl-4-methoxy-6-[(E)-styryl]benzamide] | 0.84 µg/mL (≈ 2.03 µM) | – | 1.59 µg/mL (≈ 3.85 µM) | 5.1 µg/mL (≈ 12.3 µM) | 0.79 µg/mL (≈ 1.91 µM) | 89.4 ± 2.3% | 87.4 ± 1.9% | – | – | the strongest activities | the strongest activities | – | – | – | – | – |
| COc1cc(/C=C/c2ccccc2)c(C(=O)Nc2ccc(Cl)cc2)c(O)c1CC=C(C)C [Compound 9h, N-p-chlorophenyl2-hydroxy-3-isopentenyl-4-methoxy-6-[(E)-styryl]benzamide] | 0.47 µg/mL (≈ 1.05 µM) | significantly stronger than the lead compound cajanine | 2.98 µg/mL (≈ 6.65 µM) | 1.33 µg/mL (≈ 2.97 µM) | 3.38 µg/mL (≈ 7.55 µM) | 84.5 ± 5.1% | 79.8 ± 2.1% | – | – | – | – | – | – | – | – | – |
| COc1cc(/C=C/c2ccccc2)cc(O)c1CC=C(C)C [Compound 10, Cajanine A] | 0.27 µg/mL (≈ 0.917 µM) | significantly stronger than the lead compound cajanine | 0.69 µg/mL (≈ 2.34 µM) | 0.56 µg/mL (≈ 1.9 µM) | 0.21 µg/mL (≈ 0.713 µM) | 34.7 ± 9.8% | 69.9 ± 5.8% | stronger anti-HIV, HCV viral activities | stronger anti-HIV, HCV viral activities | – | – | – | – | – | – | – |
| COc1cc(/C=C/c2ccc(F)cc2)cc(O)c1CC=C(C)C [Compound 10a, 2-isopentenyl-3-methoxy-5-[(E)-(4′-fluorostyryl)]phenol] | > 0.69 µg/mL | significantly stronger than the lead compound cajanine | – | – | – | – | – | – | – | – | – | 6.32 µg/mL (≈ 20.2 µM) | 1.6 µg/mL (≈ 5.12 µM) | 2.02 µg/mL (≈ 6.47 µM) | 78.2 ± 4.1% | 79.8 ± 5.6% |
| COc1cc(/C=C/c2ccccc2Cl)cc(O)c1CC=C(C)C [Compound 10b] | > 0.23 µg/mL | – | – | – | – | – | – | stronger anti-HIV, HCV viral activities | stronger anti-HIV, HCV viral activities | – | – | 6.38 µg/mL (≈ 19.4 µM) | 0.59 µg/mL (≈ 1.79 µM) | 0.3 µg/mL (≈ 0.912 µM) | 74.8 ± 5.2% | 74.6 ± 6.3% |
| COc1ccc(/C=C/c2cc(O)c(CC=C(C)C)c(OC)c2)cc1 [Compound 10c, 2-isopentenyl-3-methoxy-5-[(E)-4′-methoxystyryl]phenol] | > 6.17 µg/mL | – | 2.35 µg/mL (≈ 7.24 µM) | 7.17 µg/mL (≈ 22.1 µM) | 0.35 µg/mL (≈ 1.08 µM) | 81.6 ± 2.6% | 80.3 ± 6.2% | – | – | the strongest activities | the strongest activities | – | – | – | – | – |
| COc1cccc(OC)c1/C=C/c1cc(O)c(CC=C(C)C)c(OC)c1 [Compound 10d, 2-isopentenyl-3-methoxy-5-[(E)-2′,6′-dimethoxy-styryl]phenol] | > 6.17 µg/mL | – | > 2.05 µg/mL | 2.37 µg/mL (≈ 6.69 µM) | 1.05 µg/mL (≈ 2.96 µM) | 79.3 ± 5.4% | 78.9 ± 6.1% | – | – | the strongest activities | the strongest activities | – | – | – | – | – |
| COc1cc(/C=C/c2ccccc2C)cc(O)c1CC=C(C)C [Compound 10e, 2-isopentenyl-3-methoxy-5-[(E)-2′-methylstyryl]phenol] | 1.92 µg/mL (≈ 6.23 µM) | significantly stronger than the lead compound cajanine | 2.35 µg/mL (≈ 7.62 µM) | 1.9 µg/mL (≈ 6.16 µM) | 1.33 µg/mL (≈ 4.31 µM) | 65.3 ± 2.3% | 70.2 ± 8.1% | – | – | – | – | – | – | – | – | – |
| COc1cc(/C=C/c2cccc(C)c2)cc(O)c1CC=C(C)C [Compound 10f, 2-isopentenyl-3-methoxy-5-[(E)-3′-methylstyryl]phenol] | 0.89 µg/mL (≈ 2.89 µM) | significantly stronger than the lead compound cajanine | 1.26 µg/mL (≈ 4.09 µM) | 0.87 µg/mL (≈ 2.82 µM) | 0.46 µg/mL (≈ 1.49 µM) | 74.5 ± 6.5% | 76.5 ± 8% | – | – | – | – | – | – | – | – | – |
| COc1cc(/C=C/c2ccc(C)cc2)cc(O)c1CC=C(C)C [Compound 10g, 2-isopentenyl-3-methoxy-5-[(E)-4′-methylstyryl]phenol] | > 6.19 µg/mL | – | 1.18 µg/mL (≈ 3.83 µM) | 3.09 µg/mL (≈ 10 µM) | – | 81.3 ± 2.5% | 80.3 ± 3.2% | – | – | – | – | – | – | 1.18 µg/mL (≈ 3.83 µM) | – | – |
| CC/C=C/c1cc(O)c(CC=C(C)C)c(OC)c1 [Compound 10h, 2-isopentenyl-3-methoxy-5-[(E)-buten-1-yl]phenol] | 0.74 µg/mL (≈ 3 µM) | – | > 2.06 µg/mL | 0.74 µg/mL (≈ 3 µM) | 0.96 µg/mL (≈ 3.9 µM) | 65.8 ± 9.2% | 67.8 ± 8.5% | – | – | – | – | – | – | – | – | – |
| COc1cc(/C=C/c2cccs2)cc(O)c1CC=C(C)C [Compound 10j] | > 18.5 µg/mL | – | 1.56 µg/mL (≈ 5.19 µM) | 0.87 µg/mL (≈ 2.9 µM) | 0.66 µg/mL (≈ 2.2 µM) | 82.3 ± 2.5% | 84.6 ± 5.2% | stronger anti-HIV, HCV viral activities | stronger anti-HIV, HCV viral activities | the strongest activities | the strongest activities | – | – | – | – | – |
| COc1cc(/C=C/Cc2ccccc2)cc(O)c1CC=C(C)C [Compound 10k, 2-isopentenyl-3′-methoxy-5-[(E)-3′-phenylpropen-1′-yl]phenol] | 0.89 µg/mL (≈ 2.89 µM) | significantly stronger than the lead compound cajanine | > 2.06 µg/mL | 0.99 µg/mL (≈ 3.21 µM) | 1.06 µg/mL (≈ 3.44 µM) | 85.6 ± 3.2% | 84.6 ± 2.4% | – | – | the strongest activities | the strongest activities | – | – | – | – | – |
| COc1cc(/C=C/CCc2ccccc2)cc(O)c1CC=C(C)C [Compound 10l, 2-isopentenyl-3-methoxy-5-[(E)-4′-phenylbuten-1′-yl]phenol] | 0.65 µg/mL (≈ 2.02 µM) | significantly stronger than the lead compound cajanine | > 18.2 µg/mL | 0.95 µg/mL (≈ 2.95 µM) | 2.2 µg/mL (≈ 6.82 µM) | 81.3 ± 2.9% | 84.6 ± 6.2% | stronger anti-HIV, HCV viral activities | stronger anti-HIV, HCV viral activities | the strongest activities | the strongest activities | – | – | – | – | – |
